Experimental data as given in PubChem BioAssay (NCI).
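Compound exposure: 48 hours, 5 concentrations, 96-well plates. Here, GI50 denotes the concentration required for 50% inhibition of growth. TGI: concentration producing complete growth inhibition.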

Experiments:
Assay in all cases: DTP human tumour cell line panel, 48 h
BT-549 breast = system: BT-549 breast
A549 NSCLC = system: A549 NSCLC
HL-60(TB) leukemia = system: HL-60(TB) leukemia
NCI/ADR-RES ovarian = system: NCI/ADR-RES ovarian
RPMI-8226 leukemia = system: RPMI-8226 leukemia
HOP-62 NSCLC = system: HOP-62 NSCLC
MDA-MB-435 = system: MDA-MB-435
SF-268 CNS = system: SF-268 CNS
SK-MEL-28 melanoma = system: SK-MEL-28 melanoma
HT29 colon = system: HT29 colon

Row | Compound | GI50 (BT-549 breast) [µM] | TGI (BT-549 breast) [µM] | GI50 (A549 NSCLC) [µM] | TGI (A549 NSCLC) [µM] | GI50 (HL-60(TB) leukemia) [µM] | TGI (HL-60(TB) leukemia) [µM] | GI50 (NCI/ADR-RES ovarian) [µM] | TGI (NCI/ADR-RES ovarian) [µM] | GI50 (RPMI-8226 leukemia) [µM] | TGI (RPMI-8226 leukemia) [µM] | GI50 (HOP-62 NSCLC) [µM] | TGI (HOP-62 NSCLC) [µM] | GI50 (MDA-MB-435) [µM] | TGI (MDA-MB-435) [µM] | GI50 (SF-268 CNS) [µM] | TGI (SF-268 CNS) [µM] | GI50 (SK-MEL-28 melanoma) [µM] | TGI (SK-MEL-28 melanoma) [µM] | GI50 (HT29 colon) [µM] | TGI (HT29 colon) [µM]
1 | Cc1cc(N(CCCl)CCCl)ccc1/C=N\NC(=O)c1cccnc1 | 19.4 | 61.6 | 21 | > 100 | 4.3 | 26.4 | 13.7 | 48.7 | 20.1 | 59 | 19.5 | > 100 | 24.6 | > 100 | 25.1 | > 100 | 43.4 | > 100 | 30.3 | > 100
2 | N=c1sc(N2CCOCC2)nn1CC(=O)c1ccccc1 | – | > 100 | – | > 100 | – | > 100 | – | > 100 | – | > 100 | – | > 100 | – | > 100 | – | > 100 | – | > 100 | – | > 100
3 | CCN(CC)CCCNc1nnc(C)c2[nH]c3ccccc3c12 | – | 68 | – | 53 | – | 27.4 | – | > 100 | – | > 100 | – | 35.5 | – | 25.9 | – | 34.7 | – | 40.6 | – | 56.1
4 | CCCCCCCCCCCCCCCC(=O)OCC(COP(=O)(O)OCCNC(=O)CCSSc1ccccn1)OC(=O)CCCCCCCCCCCCCCC (configuration not stated) | – | > 100 | – | > 100 | – | > 100 | – | > 100 | – | > 100 | – | > 100 | – | > 100 | – | > 100 | – | > 100 | – | > 100
5 | Nc1c(/C=C/c2cc3cc(C4=NCCN4)ccc3o2)[nH]c2cc(C3=NCCN3)ccc12 | – | > 100 | – | > 100 | – | > 100 | – | > 100 | – | > 100 | – | 96 | – | > 100 | – | > 100 | – | 97.4 | – | > 100
6 | N#Cc1c(N)n(-c2nc3ccccc3s2)c(=O)c2cc([N+](=O)[O-])ccc12 | – | > 62.7 | – | > 56.8 | – | 24.9 | – | 22.8 | – | > 100 | – | 22 | – | > 69.1 | – | > 49.6 | – | > 100 | – | 14.3
7 | CC1SCCc2nc3ccccc3n21 (configuration not stated) | – | > 100 | – | > 100 | – | > 100 | – | > 100 | – | > 100 | – | > 100 | – | > 100 | – | > 100 | – | > 100 | – | > 100
8 | COc1ccc(OC)c2c(Nc3ccc(S(=O)(=O)O)c4cc(S(=O)(=O)O)cc(S(=O)(=O)O)c34)cc(C)nc12 | – | > 100 | – | > 100 | – | > 100 | – | > 100 | – | > 100 | – | > 100 | – | > 100 | – | > 100 | – | > 100 | – | > 100
9 | Cc1nnc(N)s/c1=N/O | – | > 100 | – | > 100 | – | > 100 | – | > 100 | – | > 100 | – | > 100 | – | > 100 | – | > 100 | – | > 100 | – | > 100
10 | COC(=O)c1ccccc1NCc1cc(O)ccc1O | – | 15 | – | > 83.1 | – | > 42.8 | – | 62.5 | – | 96.9 | – | > 71.4 | – | 34.2 | – | > 77.4 | – | 35.4 | – | 44.2
11 | CNc1nc(OC)c2c(n1)[n+](C)cn2C | – | > 100 | – | > 100 | – | > 100 | – | > 100 | – | > 100 | – | > 100 | – | > 100 | – | > 100 | – | > 100 | – | > 100
12 | CCc1n[nH]c(=O)n1-c1ccncc1 | – | > 100 | – | > 100 | – | > 100 | – | > 100 | – | > 100 | – | > 100 | – | > 100 | – | > 100 | – | > 100 | – | > 100
13 | Cc1c(Cl)cc(C(C)(C)C)c(O)c1Cc1c(C)c(Cl)cc(C(C)(C)C)c1O | – | 9.79 | – | 5.88 | – | 3.45 | – | 9.24 | – | 0.707 | – | 9.87 | – | 5.62 | – | 6.89 | – | 12.3 | – | 6.36
14 | CC(=O)Oc1c(OC(C)C)cc(=O)n2ccsc12 | – | > 100 | – | > 100 | – | 58.7 | – | > 100 | – | > 100 | – | > 100 | – | 31 | – | > 100 | – | > 100 | – | > 100
15 | NNC(=O)COc1nc(-c2cccs2)nc2ccc(I)cc12 | – | 38.9 | – | 43.2 | 37.9 | > 100 | – | 91.9 | 16 | 39.4 | – | 75.6 | – | 47 | – | 70.5 | – | 56.2 | – | > 100
16 | CC(C)=C[C@@H]1C[C@H](C)[C@H]2CC[C@H](C)[C@H]3C(=O)C(O)=C(C)C(=O)[C@]123 | – | > 100 | – | > 100 | – | > 100 | – | > 100 | – | > 100 | – | > 100 | – | > 100 | – | > 100 | – | > 100 | – | > 100
